Test results: PubChem BioAssay (NCI)
Values joined by “and” are separate entries in the source; they are usually repeats but may differ in a detail not shown here. Equal entries are not always repeated.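 All cell lines were grown in 96-well plates and treated with compound for 48 hours. GI50 = concentration required for 50% inhibition of growth. TGI is the concentration that stops growth completely.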

What was measured:
Assay in all cases: NCI tumour cell line growth inhibition, 48 h
OVCAR-8 ovarian = system: OVCAR-8 ovarian
MDA-MB-435 = system: MDA-MB-435
SK-MEL-5 melanoma = system: SK-MEL-5 melanoma
HS 578T breast = system: HS 578T breast
ACHN renal = system: ACHN renal
HCT-15 colon = system: HCT-15 colon
M14 melanoma = system: M14 melanoma
HOP-62 NSCLC = system: HOP-62 NSCLC
UO-31 renal = system: UO-31 renal
SF-539 CNS = system: SF-539 CNS

| Structure (SMILES) | TGI (OVCAR-8 ovarian) [µM] | TGI (MDA-MB-435) | TGI (SK-MEL-5 melanoma) | TGI (HS 578T breast) [µM] | TGI (ACHN renal) | TGI (HCT-15 colon) [µM] | TGI (M14 melanoma) [µM] | TGI (HOP-62 NSCLC) [µM] | TGI (UO-31 renal) [µM] | TGI (SF-539 CNS) [µM] | GI50 (SF-539 CNS) [µM] | GI50 (MDA-MB-435) [µM] | GI50 (SK-MEL-5 melanoma) [µM] | GI50 (ACHN renal) [µM] | GI50 (HCT-15 colon) [µM] | GI50 (M14 melanoma) [µM] | GI50 (HOP-62 NSCLC) [µM] | GI50 (UO-31 renal) [µM] | GI50 (OVCAR-8 ovarian) [µM] | GI50 (HS 578T breast) [µM] |
| --- | --- | --- | --- | --- | --- | --- | --- | --- | --- | --- | --- | --- | --- | --- | --- | --- | --- | --- | --- | --- |
| COC(=O)[C@H](Cc1c[nH]c2ccccc12)NC(=O)c1ccc(CNC(=O)/C=C/c2cccc(Oc3ccccc3)c2)cc1 | > 100 | 27.8 µM | > 100 µM | > 100 | > 100 µM | > 100 | > 100 | > 100 | > 100 |  |  |  |  |  |  |  |  |  |  |  |
| CCNC(=O)c1c(O)c2ccccc2[nH]c1=O | > 100 | > 100 µM | > 100 µM | > 100 | > 100 µM | > 100 |  | > 100 | > 100 | > 100 |  |  |  |  |  |  |  |  |  |  |
| CCOC(=O)CC1(c2cccc3ccccc23)OC(=O)c2ccccc21 (stereo not given) | > 100 |  | 63.8 µM |  | > 100 µM | > 100 |  |  | 65.9 |  |  |  |  |  |  |  |  |  |  |  |
| Clc1ccc(C(SCc2ccccc2)SCc2ccccc2)cc1 | > 10 |  | > 10 µM | > 10 | > 10 µM | > 10 | > 10 | > 10 | > 10 | > 10 |  |  |  |  |  |  |  |  |  |  |
| FC(F)(F)c1cccc(-c2nc3ccccc3c3c2[C@@]2(N4CCCC4)CCCC[C@@H]32)c1 |  | 59.3 µM | 30.4 µM | > 100 |  |  | > 100 | > 100 | 48.9 | > 100 |  |  |  |  |  |  |  |  |  |  |
| COc1ccc(CN=C(N)N)c2ccccc12 | > 100 |  | 38 µM | 54.9 | > 100 µM | > 100 | > 100 | > 100 | 87.9 | 52.8 |  |  |  |  |  |  |  |  |  |  |
| c1csc(C[N+]23CN4CN(CN(C4)C2)C3)c1 | 74.9 |  | 35.8 µM |  | > 100 µM | 77.2 | 32.2 | 46.6 | > 100 | > 100 |  |  |  |  |  |  |  |  |  |  |
| CC(=O)OC[C@@H](OC(C)=O)[C@H](OC(C)=O)[C@@H]1OC(C)(C)O[C@@H]1C1SCCCS1 | > 100 | > 100 µM | > 100 µM | > 100 | > 100 µM |  | > 100 | > 100 | > 100 | > 100 |  |  |  |  |  |  |  |  |  |  |
| O=C1c2cc(Cl)ccc2NC(=NCCCl)C2CSCN12 (stereo not given) | > 100 | > 100 µM | > 100 µM | > 100 | > 100 µM | > 100 | > 100 | > 100 | > 100 |  |  |  |  |  |  |  |  |  |  |  |
| COc1ccc(N2C(=O)C3c4[nH]c5ccc(F)cc5c4C4CCC(c5ccccc5)CC4C3C2=O)cc1 (stereo not given) | 50.6 | 53.9 µM | 54.2 µM | 31.8 | 74.1 µM | > 100 | 45.1 | 28.1 | 55.5 |  |  |  |  |  |  |  |  |  |  |  |
| Nc1nc(N)c2cc(NCc3ccc(Cl)c(Cl)c3)ccc2n1 |  | 2.4 µM | 2.83 µM |  | 2.58 µM | 2.02 | 2.16 | 3.01 | 2.89 | 3.04 | 1.65 | 1.11 | 1.5 | 1.31 | 0.765 | 0.841 | 1.63 | 1.35 |  |  |
| Oc1ccc(Cl)cc1CN1CCN(Cc2cc(Cl)ccc2O)C1 | 2.21 | 7.92 µM | 2.22 µM | 8.99 | 4.25 µM |  | 2.87 | 2.79 | 2.19 | 2.81 |  |  |  |  |  |  |  |  |  |  |
| O=CC12C3CCC1C2C(=O)C3 (stereo not given) | > 100 | > 100 µM | > 100 µM |  | > 100 µM | > 100 | > 100 | > 100 |  | > 100 |  |  |  |  |  |  |  |  |  |  |
| O=C1CC(c2cccc(Br)c2)n2cccc21 (stereo not given) | > 100 | > 100 µM |  | > 100 | > 100 µM | > 100 | > 100 | > 100 | 66.9 | > 100 |  |  |  |  |  |  |  |  |  |  |
| O=C(NCc1cccc2ccccc12)N/N=C\c1ccc(Cl)cc1 | > 100 | > 100 µM | > 100 µM |  | > 100 µM | > 100 | > 100 | > 100 | > 100 | > 100 |  |  |  |  |  |  |  |  |  |  |
| Cc1ccc(N(CC(=O)Nc2ccc(S(=O)(=O)N3CCC(N4CCCC4)CC3)cc2)S(=O)(=O)c2ccc(Cl)cc2)cc1 | 3.76 | 3.14 µM | 3.14 µM | 4.39 |  | 2.93 | 3.39 | 3.55 | 3.27 |  |  | 1.69 | 1.73 |  | 1.43 | 1.71 | 1.76 | 1.6 | 1.86 | 1.76 |
| CC1=Nc2sc3c(c2C2=NCCN12)CCCC3 | 50.6 | 91.6 µM | 77.4 µM | 91.1 | 69.9 µM | > 100 |  | > 100 | 50.5 |  |  |  |  |  |  |  |  |  |  |  |

| Structure (SMILES) | TGI (OVCAR-8 ovarian) [µM] | TGI (MDA-MB-435) | TGI (SK-MEL-5 melanoma) | TGI (HS 578T breast) [µM] | TGI (ACHN renal) | TGI (HCT-15 colon) [µM] | TGI (M14 melanoma) [µM] | TGI (HOP-62 NSCLC) [µM] | TGI (UO-31 renal) [µM] | TGI (SF-539 CNS) [µM] | GI50 (SF-539 CNS) [µM] | GI50 (MDA-MB-435) [µM] | GI50 (SK-MEL-5 melanoma) [µM] | GI50 (ACHN renal) [µM] | GI50 (HCT-15 colon) [µM] | GI50 (M14 melanoma) [µM] | GI50 (HOP-62 NSCLC) [µM] | GI50 (UO-31 renal) [µM] | GI50 (OVCAR-8 ovarian) [µM] | GI50 (HS 578T breast) [µM] |
| --- | --- | --- | --- | --- | --- | --- | --- | --- | --- | --- | --- | --- | --- | --- | --- | --- | --- | --- | --- | --- |
| Cc1cc(S(=O)(=O)Nc2nc(N)nc(N(C)C)n2)c(SCC(=O)O)cc1Cl | > 10 |  | > 10 µM |  | > 10 µM | > 10 | > 10 | > 10 | > 10 | > 10 |  |  |  |  |  |  |  |  |  |  |
| Cc1csc(/N=C\c2c(O)c3ccccc3oc2=O)n1 | > 100 | > 100 µM | > 100 µM | 94.5 | > 100 µM | > 100 | > 100 |  | 75.9 | > 100 |  |  |  |  |  |  |  |  |  |  |
| COc1cc2cc(C(=O)N3CC(CCl)c4c3cc(N)c3ccccc43)[nH]c2c(OC)c1OC (stereo not given) | < 0.01 |  |  |  | 0.108 µM | 1.58 |  | < 0.0109 | < 0.01 |  |  |  |  |  |  |  |  |  |  |  |
| CCCCCCCCCCCCCCCCOC[C@@H](COC(c1ccccc1)(c1ccccc1)c1ccccc1)O[P+](=S)OC (stereo not given in full) | 48.9 | 5.5 µM | 22.4 µM | 82.6 | 29 µM | 22.4 | 14.5 |  | 30.1 | 9.45 |  |  |  |  |  |  |  |  |  |  |
| O=C(N/N=C(/COc1ccc([N+](=O)[O-])cc1)N=Cc1ccncc1)c1ccncc1 | > 100 | > 100 µM |  |  | > 100 µM | > 100 | > 100 | > 100 |  | > 100 |  |  |  |  |  |  |  |  |  |  |
| O=c1[nH]nc(Cc2ccccc2)n1CCO | > 100 | > 100 µM | > 100 µM | > 100 | > 100 µM | > 100 | > 100 |  | > 100 | > 100 |  |  |  |  |  |  |  |  |  |  |
| CC(C)C(N)=O | > 5000 |  | > 5000 µM |  | > 5000 µM | > 5000 | > 5000 | > 5000 | > 5000 | > 5000 |  |  |  |  |  |  |  |  |  |  |
| CC1C2(C)OC(=N)C(C#N)(C(c3cccc([N+](=O)[O-])c3)O2)C1(C#N)C#N (stereo not given) | > 100 |  | 20.9 µM | > 100 | > 100 µM |  | 38.7 |  | > 100 | 34.2 |  |  |  |  |  |  |  |  |  |  |
| COc1cc2c(=O)cnoc2cc1O | > 100 | > 100 µM | > 100 µM | > 100 | > 100 µM | > 100 | > 100 |  | > 100 | > 100 |  |  |  |  |  |  |  |  |  |  |
| C=C(OC1C(C)=C2C(C1OC(=O)CCCCCCC)C(C)(OC(C)=O)CC(OC(=O)CCC)C1(O)C2OC(=O)C1(C)O)/C(C)=C/C (stereo not given) | 5.98 |  |  |  |  | 15 |  |  | 0.614 | 8.01 | < 0.0001 |  | < 0.0001 |  | 0.0842 |  | < 0.0001 | 0.17 | 0.000243 |  |
| CC/C=C(\C(=C/CC)[N+](=O)[O-])[N+](=O)[O-] | 39 | 31.6 µM | 47.9 µM |  | 33.2 µM |  | 27 | > 100 | 33 | 40.3 |  |  |  |  |  |  |  |  |  |  |
| O=C1Nc2ccc(Cl)cc2/C1=C\c1c(Cl)nc2sccn12 | > 100 | 3.22 µM |  |  | > 100 µM | > 100 | > 100 | 96.3 | > 100 |  |  |  |  |  |  |  |  |  |  |  |
| FC1C2=C(SC1(F)F)C1CCC2C1 (stereo not given) | > 100 | > 100 µM | > 100 µM | > 100 | > 100 µM | > 100 | > 100 |  | > 100 |  |  |  |  |  |  |  |  |  |  |  |
| CCCCCCCCCCC1OC([C@@H](O)CC[C@H](O)C2CC[C@@H](CCCCCCCC(O)CC3=CC(C)OC3=O)O2)CCC1O (stereo not given in full) | > 25 | 5.58 µM and > 20.2 µM | 9.13 µM and > 10.5 µM |  | 8.79 µM and > 25 µM | > 25 | > 17.5 | > 25 | 10.4 | > 25 |  | 1.59 | 1.81 | 1.62 | 7.58 | 4.81 | 6.29 | 2.66 | 9.96 |  |
| NNC(=O)c1nnn(CCc2ccccc2)c1C(=O)NN | > 100 | > 100 µM | > 100 µM |  | > 100 µM | > 100 | > 100 | > 100 | > 100 |  |  |  |  |  |  |  |  |  |  |  |
| Cc1ccc2oc(=O)c(C(=O)Nc3nc(C45CC6CC(CC(C6)C4)C5)cs3)cc2c1 | > 100 | > 100 µM | > 100 µM | > 100 | > 100 µM | > 100 |  | > 100 | > 100 | > 100 |  |  |  |  |  |  |  |  |  |  |
| CC(=O)OCC1OC(Oc2cc(C)c(O)cc2C/C=C(\C)CC/C=C(\C)CC(=O)CC(C)C)C(O)C(OC(C)=O)C1OC(C)=O (stereo not given) | > 50 | 48.4 µM | 14.9 µM | 35.2 | 44.9 µM | > 50 | 25.7 | 40 | 32 |  |  |  |  |  |  |  |  |  |  |  |
